{"source": "patent US20120129898A1", "about": "“PHARMACEUTICAL COMPOSITIONS FOR POORLY SOLUBLE DRUGS” (priority 2007, published 2012)", "key": {"[1]": {"assay": "Aqueous solubility of HEP", "assay_type": "physicochemical"}, "[2]": {"assay": "Exposure after dosing crystalline HEP in animal species", "assay_type": "in vivo", "settings": "crystalline form dosed in animal species"}}}
{"smiles": "CCC(=O)c1csc(NC(=O)[C@H]([C@@H](C)c2ccccc2)N2C(=O)N[C@H](c3ccc(OCCO)cc3)C2=O)n1", "note": "[HEP, (2S,3S)-2-{(R)-4-[4-(2-hydroxy-ethoxy)-phenyl]-2,5-dioxo-imidazolidin-1-yl}-3-phenyl-N-(4-propionyl-thiazol-2-yl)-butyramide]", "values": [{"measurement": "Aqueous solubility", "setting": "[1]", "value": "poor aqueous solubility"}, {"measurement": "Exposure of crystalline form (even nanocrystalline)", "setting": "[2]", "value": "very low exposure"}]}
